In patent publication US7550426B2, “Acetylated therapeutic procytotoxins” (GHC Research Development Corporation, priority 2005, dated 2009):

How the values were obtained:
[1] = molecular target: prostate specific membrane antigen (human) (UniProt Q04609)
LNCaP tumor = experiment: Plasma PSA levels in mouse model for human prostate cancer (LNCaP tumor), intraperitoneal treatment; type: in vivo; settings: nude mice with LNCaP tumor; 200 μg peptide per injection, intraperitoneally, twice per week; PSA measured after three, five and seven weeks
Procedure: LNCaP cells lot #3475262 (Catalog # CRL-1740) are received from ATCC, quickly thawed at 37° C. and placed in culture immediately. Cells are cultured in RPMI media (supplemented with 10% FBS, 50,000 units of Penicillin and 50,000 ug Streptomycin) and grown at 37° C. in the presence of 5% CO2. Cells are passed when approximately 80% confluent until there are enough cells to do the in vivo studies.
(§1) 20 nude mice are injected subcutaneously (right flank) with 0.5 ml of a 4 million cell/ml suspension (50% PBS 50% high concentration matrigel). Each mouse receives approximately 2 million cells. The mice are male, approximately 12 weeks of age and of the nude BalbC background.
(§2) 5 days following LNCaP tumor inoculation, mice are injected with an acetylated γ-glutamate-masked amoebapore, a non-acetylated γ-glutamate-masked amoebapore, and a control. Six control mice are injected with 200 μl of PBS and the remaining 14 mice are injected with 200 μl of a 1 mg/ml solution of either the acetylated or non-acetylated γ-glutamate-masked amoebapore peptide (i.e., 200 μg peptide per injection). Mice are injected intraperitoneally, twice per week. PSA levels are measured after three, five, and seven weeks of treatment. Lower PSA levels relative to control provide an objective indication that the procytotoxin is converted to its cytotoxic form and is able to lyse a target cell.

LNCaP cells = experiment: In vitro lysis of LNCaP cells measured by LDH release; type: cell-based, human; settings: concentration 160 μM
Procedure: Prior to tumor injection, in vitro studies are conducted to check the activity of the acetylated and non-acetylated procytotoxin, and to check the activity of the LNCaP cells for their ability to secrete PSA. Peptide activity is checked by a LDH Cytotoxicity Detection Kit (Roche).
Non-acetylated γ-glutamate-masked amoebapore (a modified cytotoxin comprising one or more γ-linked glutamate residues linked via a peptide bond to the epsilon amino group of at least one lysine, preferably the C-terminal-most lysine), and acetylated γ-glutamate-masked amoebapore are compared in vitro for their ability to lyse LNCaP cells, as measured by percent lactic acid dehydrogenase (LDH) release.

[2] = Mouse weight after 7 weeks of intraperitoneal injection in mouse model for prostate cancer; type: in vivo; settings: nude mice with LNCaP tumor; following 7 weeks of intraperitoneal injection; compared to control animals
Procedure: as §1, §2
Additionally, mice are weighed following 7 weeks of intraperitoneal injection of a non-acetylated procytotoxin or an acetylated procytoxin in a mouse model for prostate cancer. […] Cachexia is a profound and marked state of constitutional disorder, representing general ill health. It is sometimes associated with an emaciated condition, such as cancerous cachexia seen in cases of a malignant tumor. […]

nucleated cells = settings: high concentrations; cited from earlier work

acetylated γ-glutamate-masked amoebapore (peptide)
% LDH Release (% LDH Release) [1]: 29.9

CC(=O)NC(CCC(=O)NC(CCC(=O)NCCCCC(N)C(N)=O)C(=O)O)C(=O)O (stereo not drawn) [Acetylated procytotoxin]
plasma PSA levels compared to control (LNCaP tumor): lowered PSA levels to a greater extent
% LDH Release (LNCaP cells): 29.94%
weight loss [2]: experienced the least weight loss

NH2-Gly-Phe-Ile-Ala-Thr-Leu-Cys-Thr-Lys-Val-Leu-Asp-Phe-Gly-Ile-Asp-Lys-Leu-Ile-Gln-Leu-Ile-Glu-Asp-Lys-CONH2 (H-GFIATLCTKVLDFGIDKLIQLIEDK-NH2; listed as Entamoeba histolytica) [Amoebapore Helix 3, parent cytolytic peptide from Entamoeba histolytica amoebapore, third helix]
concentrations with cytolytic activity for nucleated cells (nucleated cells): 10 to 100 µM

non-acetylated γ-glutamate-masked amoebapore (peptide)
% LDH Release (% LDH Release) [1]: 38.5
